Source: US20230158178A1, “Radionuclide Tracers of 1-Amino-3,4-Difluorocyclopentane-1-Carboxylic Acid, Derivatives, and Uses Thereof” (Emory University, priority 2020, published 2023)

Experiments:
[1] = tested on: human DU145 androgen-independent prostate carcinoma; test: Cell uptake study in DU145 prostate carcinoma cells; assay type: cell-based; conditions: for uptake in DU145 cells: no inhibitor, 30 min incubation
Experimental: (§1) Consistent with this reasoning, having knowledge of which systems take part in transporting a particular amino acid is of value, since this information can be used to determine which tumor types the amino acid may be useful for imaging. To establish which systems are responsible for transporting a particular AA, cell uptake inhibition studies are performed. In these studies, a known number of cells of a certain line are suspended in a media containing a known quantity of an amino acid radiotracer and incubated for a set period to allow for the amino acid to be transported into the cells. […] The radioactivity present within the cells after rinsing is measured and expressed as a normalized percent uptake of the radioactive amino acid dose that the cells were initially exposed to. This experiment establishes the degree to which a given amino acid is taken up by a group of cells in the absence of any perturbing conditions and serves as the control.
(§2) With this information in hand, the cell uptake experiment is performed again, but in the presence of an excess of a substrate known to have a high affinity for a particular transport system. The excess substrate floods the targeted system, competitively inhibiting the transport of other amino acids. Consequently, any reduction in cellular uptake of radioactivity relative to the control experiment is assumed to arise from loss of amino acid transport by the inhibited system. It follows that if inhibition of a transport system results in reduced uptake of a given amino acid, then that system contributes to cellular transport of the amino acid. Furthermore, the degree to which the system participates in transport can be roughly evaluated by the percent loss (inhibition) of amino acid uptake relative to the control. In addition to delineating transport mechanisms, cell uptake studies provide insight into the avidity of a particular cell line for an amino acid.
(§3) The potential of [^18F]3.09, [^18F]3.23, and [^18F]3.33 as PET radiotracers were evaluated for imaging brain and prostate cancer, cell uptake studies with rat 9 L gliosarcoma, human U87 ΔEGFR glioblastoma, and human DU145 androgen-independent prostate carcinoma. Uptake data for anti-3-[^18F]-FACBC were also collected under the same conditions for comparison. Alpha-(methylamino)isobutyric acid (MeAIB) was used as a competitive inhibitor for system A transport, 2-amino-bicyclo[2.2.1]heptane2-carboxylic acid (BCH) was used to inhibit system L, and the combination of alanine, serine, and cysteine was used for inhibition of system ASC.

[2] = tested on: 9 L, U87 ΔEGFR, and DU145 cell; test: Cell uptake and uptake inhibition, stated across all cell lines tested; assay type: cell-based, rat; human; conditions: for mechanism of transport (in words): each of the cell lines tested; for relative cell uptake (in words): all cell lines
Experimental: Data are presented as percent ligand uptake of the initial dose per 0.5 million cells (% ID/5×10^5 cells).
as §1, §2, §3

rat 9 L gliosarcoma = conditions: 9 L gliosarcoma cells; cited from earlier work
[3] = tested on: human U87 ΔEGFR glioblastoma; test: Cell uptake inhibition study in U87 ΔEGFR glioblastoma cells; assay type: cell-based
Experimental: as §1, with “This experiment establishes the degree to which a given amino acid is taken up by a group of cells in the absence of any perturbing conditions and serves as the control.” left out
With this information in hand, the cell uptake experiment is performed again, but in the presence of an excess of a substrate known to have a high affinity for a particular transport system. […] Consequently, any reduction in cellular uptake of radioactivity relative to the control experiment is assumed to arise from loss of amino acid transport by the inhibited system. […] Furthermore, the degree to which the system participates in transport can be roughly evaluated by the percent loss (inhibition) of amino acid uptake relative to the control. […]

[4] = tested on: intracranial 9 L gliosarcoma tumors; test: MicroPET biodistribution in Fischer rats bearing intracranial 9 L gliosarcoma tumors; assay type: in vivo; conditions: for background uptake in healthy brain: normal brain, range over the study; for tumor uptake at final time point: final time point / final scan
Experimental: To gain insight into the biodistribution profiles of [^18F]3.09, [^18F]3.23, and [^18F]3.33 each was administered to Fischer rats bearing intracranial 9 L gliosarcoma tumors, which have been used extensively as models for human glioma. With each tracer, uptake in 9 L tumors was higher than in normal brain tissue at all time points, peaking near the 12.5-minute time point. Tumor uptake was highest with [^18F]3.09 and stayed fairly constant at 2.0-2.2% injected dose per gram of tissue (% ID/g) throughout the course of the study. […] While absolute uptake in tumors was highest with [^18F]3.09, background uptake in healthy brain was also highest with this stereoisomer, ranging from 0.59-0.96% % ID/g, compared to uptake values of 0.39-0.46 and 0.28-0.36% ID/g obtained with [^18F]3.23 and [^18F]3.33, respectively.
(§4) [^18F]trans-3,4-DFACPC ([^18F]3.23) was prepared in 1.3% decay corrected radiochemical yield in greater than 99% radio-chemical purity. Competitive uptake inhibition studies with 9 L gliosarcoma, human U87 ΔEGFR glioblastoma, and human DU145 androgen-independent prostate carcinoma cells to establish the mechanism of transport of [^18F]3.23, as well as its affinity for each cell line. The biodistribution of [^18F]3.23 was assessed in normal and intracranial 9 L gliosarcoma bearing rats via micro-PET imaging.

[5] = MicroPET biodistribution in normal Fischer rats (bladder accumulation); assay type: in vivo; conditions: post injection
Experimental: DFACPC, and anti-3-[^18F] FACBC.
as §4
MicroPET biodistribution studies in normal Fischer rats established that bladder accumulation of [^18F]3.23 is delayed until at least 10 minutes post injection. In rats bearing intracranial 9 L gliosarcoma, [^18F]3.23 gave tumor uptake values of up to 1.2% injected dose per gram (% ID/g) and tumor to contralateral brain tissue ratios of up to 2.8.

[6] = range over the three cell lines
[7] = 4.5-minute time point (highest for the tracer)

N[C@]1(C(=O)O)C[C@@H](F)C1 [anti-3-[^18F]-FACBC, anti-1-amino-3-[^18F]fluorocyclobutane-1-carboxylic acid]
uptake in DU145 cells [1]: 20 % ID/5×10^5 cells | uptake levels, percent of the initial dose per 0.5 million cells ([2]; across all cell lines tested, no inhibitor, 30 min incubation): 6-20 % ID/5×10^5 cells | mechanism of transport (in words) [2]: primarily a substrate for system ASC | inhibition of uptake by BCH (system L) [2, 6]: 36-56% | inhibition of uptake by alanine, serine, and cysteine (system ASC) [2, 6]: 73-87%

N[C@]1(C(=O)O)CCC[C@@H]1[18F] [anti-2-[^18F]-FACPC, anti-1-amino-2-[^18F] fluorocyclopentane-1-carboxylic acid]
inhibition of uptake by BCH (system L) (rat 9 L gliosarcoma): 71% | inhibition of uptake by MeAIB (system A) (rat 9 L gliosarcoma): 38% | inhibition of uptake by alanine, serine, and cysteine (system ASC) (rat 9 L gliosarcoma): 65%

N[C@]1(C(=O)O)C[C@@H](F)[C@@H]([18F])C1 [[^18F]3.09, anti-cis-[^18F]-1-amino-3,4-difluorocyclopentane-1-carboxylic acid]
inhibition of uptake by BCH [3]: 50% | inhibition of uptake by alanine, serine, and cysteine [3]: 78% | uptake in DU145 cells [1]: 18 % ID/5×10^5 cells | relative cell uptake (in words) [2]: greater uptake than [^18F]3.33 in all cell lines | L/N ratio [4, 7]: 3.5 | tumor uptake, injected dose per gram of tissue ([4]; 9 L tumor, throughout the course of the study): 2.0-2.2 % ID/g | background uptake in healthy brain [4]: 0.59-0.96 % ID/g

N[C@@]1(C(=O)O)C[C@@H]([18F])[C@@H](F)C1 [[^18F]3.33, syn-cis-[^18F]-1-amino-3,4-difluorocyclopentane-1-carboxylic acid]
L/N ratio [4, 7]: 4.3 | tumor uptake at final time point ([4]; 9 L tumor): 0.8 % ID/g | tumor uptake, peak value ([4]; 9 L tumor, peak / maximum): 1.2 % ID/g | background uptake in healthy brain [4]: 0.28-0.36 % ID/g

N[C@]1(C(=O)O)C[C@@H](F)[C@H]([18F])C1 (racemic) [[^18F]3.23, trans-[^18F]-1-amino-3,4-difluorocyclopentane-1-carboxylic acid]
avidity of DU145 cells (in words) [1]: substantially greater avidity | uptake in DU145 cells, fold higher than [^18F]-FACBC [1]: 1.7 fold | uptake in DU145 cells, fold higher than the best cis-3,4-DFACPC analog [1]: ~2 fold | uptake in DU145 cells [1]: 34 % ID/5×10^5 cells | relative cell uptake (in words) [2]: greater uptake than [^18F]3.33 in all cell lines | mechanism of transport (in words) [2]: transported primarily via system L with some transport occurring via system ASC | tumor uptake at final time point ([4]; 9 L tumor): 1.1 % ID/g | L/N ratio ([4]; 12.5-minute mark (maximum)): 2.8 | L/N ratio ([4]; 52.5 minutes): 2.4 | tumor to contralateral brain tissue ratios ([4]; maximum (up to)): up to 2.8 | background uptake in healthy brain [4]: 0.39-0.46 % ID/g | bladder accumulation delayed until [5]: at least 10 minutes
